ChEMBL document CHEMBL1201862, “PubChem BioAssay data set” (2004)
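48-hour exposure; five concentrations; linearly interpolated endpoints. GI50 = concentration required for 50% inhibition of growth.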 The source made the active and inactive calls. Cut-off read from the data, not from the text of the source: active = GI50 up to about 1.1 µM and inactive = higher.

Columns and labels:
Test in all cases: NCI-60 cell line screen, 48 h
SK-MEL-5 = test system: SK-MEL-5
OVCAR-8 = test system: OVCAR-8
UO-31 = test system: UO-31
M19-MEL = test system: M19-MEL
NCI-H23 = test system: NCI-H23
ACHN = test system: ACHN
SNB-19 = test system: SNB-19
HL-60 = test system: HL-60
IGROV-1 = test system: IGROV-1
OVCAR-4 = test system: OVCAR-4
NCI-H522 = test system: NCI-H522
KM12 = test system: KM12
SK-MEL-2 = test system: SK-MEL-2
OVCAR-3 = test system: OVCAR-3
A549 = test system: A549
DLD-1 = test system: DLD-1
U-251 = test system: U-251
Malme-3M = test system: Malme-3M
NCI-H226 = test system: NCI-H226
SF-268 = test system: SF-268
OVCAR-5 = test system: OVCAR-5
COLO 205 = test system: COLO 205
XF498 = test system: XF498
786-0 = test system: 786-0
A498 = test system: A498
K562 = test system: K562
HCT-116 = test system: HCT-116
SNB-75 = test system: SNB-75
UACC-257 = test system: UACC-257
CCRF-CEM = test system: CCRF-CEM
SN12C = test system: SN12C
MOLT-4 = test system: MOLT-4
RXF 393 = test system: RXF 393
SF-295 = test system: SF-295
HCT-15 = test system: HCT-15
SNB-78 = test system: SNB-78
RXF 631 = test system: RXF 631
SW-620 = test system: SW-620
RPMI-8226 = test system: RPMI-8226
M14 = test system: M14
HOP-62 = test system: HOP-62
LXFL 529 = test system: LXFL 529
EKVX = test system: EKVX
CAKI-1 = test system: CAKI-1
HOP-18 = test system: HOP-18
HT-29 = test system: HT-29
SK-MEL-28 = test system: SK-MEL-28
HCC 2998 = test system: HCC 2998
UACC-62 = test system: UACC-62
KM-20L2 = test system: KM-20L2
HOP-92 = test system: HOP-92
SF-539 = test system: SF-539
DMS-114 = test system: DMS-114
DMS-273 = test system: DMS-273
SK-OV-3 = test system: SK-OV-3
TK-10 = test system: TK-10
NCI-H460 = test system: NCI-H460
SR = test system: SR
LOX IMVI = test system: LOX IMVI

O=C1C(Br)=C[C@H]2C3C=CC(Br)(C3=O)[C@@H]12 (some centres not stated)
GI50 (SK-MEL-5): 14 µM (inactive)
GI50 (OVCAR-8): 12.5 µM (inactive)
GI50 (UO-31): 16.7 µM (inactive)
GI50 (M19-MEL): 11.8 µM (inactive)
GI50 (NCI-H23): 12.5 µM (inactive)
GI50 (ACHN): 14.6 µM (inactive)
GI50 (SNB-19): 14.1 µM (inactive)
GI50 (HL-60): 2.43 µM (inactive)
GI50 (IGROV-1): 9.62 µM (inactive)
GI50 (OVCAR-4): 15.7 µM (inactive)
GI50 (NCI-H522): 5.85 µM (inactive)
GI50 (KM12): 11.9 µM (inactive)
GI50 (SK-MEL-2): 14.3 µM (inactive)
GI50 (OVCAR-3): 13.6 µM (inactive)
GI50 (A549): 15.3 µM (inactive)
GI50 (DLD-1): 7.57 µM (inactive)
GI50 (U-251): 13.8 µM (inactive)
GI50 (Malme-3M): 13.2 µM (inactive)
GI50 (NCI-H226): 19 µM (inactive)
GI50 (SF-268): 12.9 µM (inactive)
GI50 (OVCAR-5): 15.6 µM (inactive)
GI50 (COLO 205): 9.75 µM (inactive)
GI50 (XF498): 17.5 µM (inactive)
GI50 (786-0): 14.7 µM (inactive)
GI50 (A498): 19 µM (inactive)
GI50 (K562): 7.62 µM (inactive)
GI50 (HCT-116): 10.9 µM (inactive)
GI50 (SNB-75): 22.5 µM (inactive)
GI50 (UACC-257): 12.2 µM (inactive)
GI50 (CCRF-CEM): 2.59 µM (inactive)
GI50 (SN12C): 13.2 µM (inactive)
GI50 (MOLT-4): 2.3 µM (inactive)
GI50 (RXF 393): 13.8 µM (inactive)
GI50 (SF-295): 18 µM (inactive)
GI50 (HCT-15): 12.2 µM
GI50 (SNB-78): 94.8 µM (inactive)
GI50 (RXF 631): 14.4 µM (inactive)
GI50 (SW-620): 9.18 µM (inactive)
GI50 (RPMI-8226): 3.05 µM (inactive)
GI50 (M14): 9.33 µM (inactive)
GI50 (HOP-62): 35.6 µM (inactive)
GI50 (LXFL 529): 10.2 µM (inactive)
GI50 (EKVX): 15.4 µM (inactive)
GI50 (CAKI-1): 9.25 µM (inactive)
GI50 (HOP-18): 49.4 µM (inactive)
GI50 (HT-29): 10.5 µM (inactive)
GI50 (SK-MEL-28): 12.6 µM (inactive)
GI50 (HCC 2998): 13.3 µM (inactive)
GI50 (UACC-62): 3.82 µM (inactive)
GI50 (KM-20L2): 4.84 µM (inactive)
GI50 (HOP-92): 16.2 µM (inactive)
GI50 (SF-539): 13.3 µM (inactive)
GI50 (DMS-114): 14 µM (inactive)
GI50 (DMS-273): 12.8 µM (inactive)
GI50 (SK-OV-3): 7.69 µM (inactive)

CC(=O)OC1CCn2nnc(COC(=O)NC(C)C)c21 (configuration not stated)
GI50 (SK-MEL-5): > 100 µM (inactive)
GI50 (TK-10): > 100 µM (inactive)
GI50 (OVCAR-8): > 100 µM (inactive)
GI50 (UO-31): > 100 µM (inactive)
GI50 (NCI-H23): > 100 µM (inactive)
GI50 (ACHN): > 100 µM (inactive)
GI50 (SNB-19): > 100 µM (inactive)
GI50 (IGROV-1): > 100 µM (inactive)
GI50 (OVCAR-4): > 100 µM (inactive)
GI50 (NCI-H522): > 100 µM (inactive)
GI50 (KM12): > 100 µM (inactive)
GI50 (SK-MEL-2): > 100 µM (inactive)
GI50 (OVCAR-3): > 100 µM (inactive)
GI50 (A549): > 100 µM (inactive)
GI50 (DLD-1): > 100 µM (inactive)
GI50 (U-251): > 100 µM (inactive)
GI50 (Malme-3M): > 100 µM (inactive)
GI50 (NCI-H226): > 100 µM (inactive)
GI50 (OVCAR-5): > 100 µM (inactive)
GI50 (XF498): > 100 µM (inactive)
GI50 (786-0): > 100 µM (inactive)
GI50 (K562): > 100 µM (inactive)
GI50 (HCT-116): > 100 µM (inactive)
GI50 (SNB-75): > 100 µM (inactive)
GI50 (UACC-257): > 100 µM (inactive)
GI50 (SN12C): > 100 µM (inactive)
GI50 (MOLT-4): > 100 µM (inactive)
GI50 (RXF 393): > 100 µM (inactive)
GI50 (SF-295): > 100 µM (inactive)
GI50 (HCT-15): > 100 µM
GI50 (SNB-78): > 100 µM (inactive)
GI50 (NCI-H460): > 100 µM (inactive)
GI50 (RXF 631): > 100 µM (inactive)
GI50 (SW-620): > 100 µM (inactive)
GI50 (SR): > 100 µM (inactive)
GI50 (RPMI-8226): > 100 µM (inactive)
GI50 (M14): > 100 µM (inactive)
GI50 (LXFL 529): > 100 µM (inactive)
GI50 (EKVX): > 100 µM (inactive)
GI50 (CAKI-1): > 100 µM (inactive)
GI50 (HOP-18): > 100 µM (inactive)
GI50 (HT-29): > 100 µM (inactive)
GI50 (SK-MEL-28): > 100 µM (inactive)
GI50 (HCC 2998): > 100 µM (inactive)
GI50 (UACC-62): > 100 µM (inactive)
GI50 (KM-20L2): > 100 µM (inactive)
GI50 (HOP-92): > 100 µM (inactive)
GI50 (SF-539): > 100 µM (inactive)
GI50 (DMS-114): > 100 µM (inactive)
GI50 (SK-OV-3): > 100 µM (inactive)

CCCCCCCCCc1cc(=O)c2c(O)cccc2o1
GI50 (SK-MEL-5): 21 µM (inactive)
GI50 (TK-10): 54 µM (inactive)
GI50 (OVCAR-8): 38.7 µM (inactive)
GI50 (UO-31): 37.1 µM (inactive)
GI50 (M19-MEL): > 10 µM (inactive)
GI50 (NCI-H23): 65.5 µM (inactive)
GI50 (ACHN): 42.7 µM (inactive)
GI50 (SNB-19): 74.3 µM (inactive)
GI50 (HL-60): 25.2 µM (inactive)
GI50 (IGROV-1): 79.6 µM (inactive)
GI50 (OVCAR-4): 50.7 µM (inactive)
GI50 (NCI-H522): 34.9 µM (inactive)
GI50 (KM12): 40.6 µM (inactive)
GI50 (SK-MEL-2): 23.2 µM (inactive)
GI50 (OVCAR-3): 75.9 µM (inactive)
GI50 (A549): 41.8 µM (inactive)
GI50 (DLD-1): 61.8 µM (inactive)
GI50 (U-251): 48.1 µM (inactive)
GI50 (Malme-3M): 19.3 µM (inactive)
GI50 (NCI-H226): 38.1 µM (inactive)
GI50 (SF-268): 31.8 µM (inactive)
GI50 (OVCAR-5): 38.8 µM (inactive)
GI50 (COLO 205): > 100 µM (inactive)
GI50 (XF498): 31.2 µM (inactive)
GI50 (786-0): 51.4 µM (inactive)
GI50 (K562): 29.2 µM (inactive)
GI50 (HCT-116): 30.3 µM (inactive)
GI50 (SNB-75): > 10 µM (inactive)
GI50 (UACC-257): 36.3 µM (inactive)
GI50 (CCRF-CEM): 30.8 µM (inactive)
GI50 (SN12C): 87.3 µM (inactive)
GI50 (MOLT-4): 20.4 µM (inactive)
GI50 (RXF 393): 53 µM (inactive)
GI50 (SF-295): 46.3 µM (inactive)
GI50 (HCT-15): 41.3 µM
GI50 (SNB-78): 53 µM (inactive)
GI50 (NCI-H460): 56.2 µM (inactive)
GI50 (RXF 631): 65.6 µM (inactive)
GI50 (SW-620): 57.9 µM (inactive)
GI50 (SR): 37.4 µM (inactive)
GI50 (RPMI-8226): 38.2 µM (inactive)
GI50 (M14): 39.4 µM (inactive)
GI50 (HOP-62): > 100 µM (inactive)
GI50 (LXFL 529): 39.2 µM (inactive)
GI50 (EKVX): 51.8 µM (inactive)
GI50 (CAKI-1): 69.3 µM (inactive)
GI50 (HOP-18): > 100 µM (inactive)
GI50 (LOX IMVI): 22.8 µM (inactive)
GI50 (HT-29): > 10 µM (inactive)
GI50 (SK-MEL-28): 55.6 µM (inactive)
GI50 (HCC 2998): 65 µM (inactive)
GI50 (UACC-62): 58.2 µM (inactive)
GI50 (HOP-92): 57.5 µM (inactive)
GI50 (SF-539): > 100 µM (inactive)
GI50 (DMS-114): 33 µM (inactive)
GI50 (DMS-273): 41.8 µM (inactive)
GI50 (SK-OV-3): > 100 µM (inactive)
